Test [1] deals with APTK-s.c. tumors. Briefly: subcutaneous APTK tumors, UA-supplemented diet. In kind it is in vivo, C57BL/6 mice.
Test [2] concerns T cells. Put plainly: immunoblot, cell fractionation and immunofluorescence of stimulated T cells. Format: cell-based, mice. How it is done: Activated T cells were incubated on Poly-L-lysine coated coverslips for 10 min at 37° C. and then fixed with 4% PFA for 10 min, followed by permeabilization with 0.25% Triton X-100 for 10 mins. Staining for Pgam5 was performed as previously described (Yamaguchi et al., 2019), using rabbit Anti-Pgam5 antibody (ab126534, Abcam). Immune complexes were detected with 1:200-diluted anti-rabbit IgG Alexa Fluor 488 (Thermo Fisher). Nuclei were counterstained with a DAPI-containing liquid […] mountant (ProLong™ Gold Antifade Mountant, Thermo Fisher). Mitochondria were stained with 200 nM Mitotracker Red for 45 min Image were acquired by confocal microscopy.
5×10^6 isolated T cells were stimulated on cell-culture plates coated with 1:200 α-CD3 (145-2C11; 100339; BioLegend) and α-CD28 (37.51; 102115, Biolegend) for the indicated time points. After centrifugation for 5 mins at 1500 rpm, cell pellets were resuspended in complete protein lysis buffer (50 mM Tris pH 7.5, 250 mM sodium chloride, 30 mM EDTA, 25 mM sodium pyrophosphate, 1% Triton-X 100, 0.5% NP-40, 10% glycerol and 1 mM DTT) supplemented with protease and phosphatase inhibitors (Roche). When subcellular location of Pgam5 was studied, a cell fractionation kit (Abcam, Ab109719) was used according to the manufacturer's instructions. Fractionation and whole-cell lysates were snap frozen and stored at −80° C. until further analysis. Collected lysates were mixed with 10% β-mercaptoethanol Laemmli buffer and denatured for 10 min at 70° C. Equal amounts of protein as assessed by Bradford measurement (Pierce™ Coomassie Plus (Bradford) Assay Reagent, ThermoFisher) were subjected to 10-15% SDS-PAGE, then transferred to […] PVDF membranes (MeckMillipore). Membranes were blocked for 30 mins in PBS-T/5% milk or PBST-T/5% BSA prior to antibody incubation overnight with the following antibodies: β-Actin (Sigma; #A4700), Gapdh (Santacruz; sc32233), Parkin (Santacruz; sc32283), Phospho-β-Catenin (CellSignaling; 9561), TOM20 (CellSignaling; D84TN; 42406S); pStat1 (Cellsignaling; 9167) and PGAM5 (Abcam; ab126534). Afterwards, membranes were incubated for one hour with their respective HRP-conjugated secondary antibodies (Santacruz: sc2314 and sc2313), followed by development using SuperSignal West Pico Chemoluminescence Substrate (ThermoFischer Scientific). 2D densitometry was performed using ImageJ Software (National Institutes of Health, Bethesda, Maryland).

Here are results for 1 compound from US20260069693A1, “UROLITHINS AND T-CELL MEDIATED IMMUNE RESPONSE” (priority 2022, published 2026).

On to `O=c1oc2cc(O)ccc2c2ccc(O)cc12` [UA, Urolithin A], for which, in test [1] (UA-containing food + a-PD-1), the “tumor growth, UA diet combined with PD-1 blockade” value was “sensitized APTK tumors to PD-1 blockade”. Besides, in test [1] (UA-supplemented diet from day 11 after tumor injection vs control food), the tumor growth entry is “significantly reduced”. Also, the “phosphorylation of Stat1” value in test [2] (UA treated T cells compared to vehicle controls) is recorded as “equal phosphorylation”. Moreover, the Parkin protein expression result in test [2] (immunoblot, 24 h, UA 50 μM) is given as “stabilized”. Also, the b-catenin phosphorylation entry in test [2] (immunoblot, after 6 hours, UA 50 μM) is recorded as “marked decrease”. Moreover, in test [2] (sub-cellular fractionations and immunofluorescence, 6 h, UA 50 μM), the Pgam5 localization entry was “rapidly released into the cytoplasma”.
